Assay in all cases: biochemical
What all share (set-up): DiscoveRx KINOMEscan active site-directed competition binding; percent of control kinase bound to immobilised ligand

One assay has as its target T1, SGK2 (Homo sapiens, UniProt Q9HBY8).
T1 sequence (Q9HBY8 1-367): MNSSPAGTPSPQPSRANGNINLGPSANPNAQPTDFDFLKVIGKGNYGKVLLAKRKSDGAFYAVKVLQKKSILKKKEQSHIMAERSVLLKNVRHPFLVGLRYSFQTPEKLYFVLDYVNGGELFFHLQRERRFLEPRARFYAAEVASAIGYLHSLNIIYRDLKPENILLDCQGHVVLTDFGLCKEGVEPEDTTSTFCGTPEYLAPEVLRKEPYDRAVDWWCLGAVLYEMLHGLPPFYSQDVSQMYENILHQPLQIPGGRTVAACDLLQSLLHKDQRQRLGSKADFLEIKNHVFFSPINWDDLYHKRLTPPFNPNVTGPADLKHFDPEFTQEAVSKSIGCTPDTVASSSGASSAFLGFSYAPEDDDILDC

In the next assay the target is NEK6 (Homo sapiens, UniProt Q9HC98).
Chain of NEK6 (Q9HC98 whole entry): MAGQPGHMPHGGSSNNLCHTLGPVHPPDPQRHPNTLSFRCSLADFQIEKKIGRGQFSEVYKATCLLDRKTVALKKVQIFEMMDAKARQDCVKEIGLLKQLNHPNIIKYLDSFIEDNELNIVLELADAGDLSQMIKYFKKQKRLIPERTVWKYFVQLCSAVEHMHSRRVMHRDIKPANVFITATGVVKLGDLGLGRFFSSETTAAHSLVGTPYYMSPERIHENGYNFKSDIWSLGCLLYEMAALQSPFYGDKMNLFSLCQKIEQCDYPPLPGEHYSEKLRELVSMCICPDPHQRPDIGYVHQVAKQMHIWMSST
The target in assay [1] is T2, RSK2(Kin.Dom.1-N-terminal) (Homo sapiens, UniProt P51812).
T2 construct: gene RPS6KA3; Kin.Dom.1-N-terminal
T2 sequence (P51812 whole entry): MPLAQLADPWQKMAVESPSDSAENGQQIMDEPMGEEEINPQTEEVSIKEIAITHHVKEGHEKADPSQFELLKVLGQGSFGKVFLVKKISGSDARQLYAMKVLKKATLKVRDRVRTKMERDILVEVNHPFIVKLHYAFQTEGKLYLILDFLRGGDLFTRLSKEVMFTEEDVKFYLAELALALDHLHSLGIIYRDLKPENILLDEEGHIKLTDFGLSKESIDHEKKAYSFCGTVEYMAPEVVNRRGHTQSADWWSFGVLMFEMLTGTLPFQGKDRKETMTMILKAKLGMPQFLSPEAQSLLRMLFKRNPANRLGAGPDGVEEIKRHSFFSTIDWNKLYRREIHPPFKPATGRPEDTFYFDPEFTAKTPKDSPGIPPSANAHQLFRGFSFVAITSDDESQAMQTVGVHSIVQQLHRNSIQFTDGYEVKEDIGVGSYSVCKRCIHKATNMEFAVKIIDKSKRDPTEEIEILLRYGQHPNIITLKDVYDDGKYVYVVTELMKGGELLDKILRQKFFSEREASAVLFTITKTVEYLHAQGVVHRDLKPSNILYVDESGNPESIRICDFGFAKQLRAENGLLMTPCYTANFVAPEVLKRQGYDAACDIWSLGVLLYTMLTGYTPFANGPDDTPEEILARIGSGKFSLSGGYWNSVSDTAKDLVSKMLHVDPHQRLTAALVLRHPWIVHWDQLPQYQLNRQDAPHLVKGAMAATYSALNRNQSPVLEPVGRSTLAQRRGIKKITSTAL

Another assay addresses T3, EPHA8 (Homo sapiens, UniProt P29322).
T3 sequence (P29322 1-1005): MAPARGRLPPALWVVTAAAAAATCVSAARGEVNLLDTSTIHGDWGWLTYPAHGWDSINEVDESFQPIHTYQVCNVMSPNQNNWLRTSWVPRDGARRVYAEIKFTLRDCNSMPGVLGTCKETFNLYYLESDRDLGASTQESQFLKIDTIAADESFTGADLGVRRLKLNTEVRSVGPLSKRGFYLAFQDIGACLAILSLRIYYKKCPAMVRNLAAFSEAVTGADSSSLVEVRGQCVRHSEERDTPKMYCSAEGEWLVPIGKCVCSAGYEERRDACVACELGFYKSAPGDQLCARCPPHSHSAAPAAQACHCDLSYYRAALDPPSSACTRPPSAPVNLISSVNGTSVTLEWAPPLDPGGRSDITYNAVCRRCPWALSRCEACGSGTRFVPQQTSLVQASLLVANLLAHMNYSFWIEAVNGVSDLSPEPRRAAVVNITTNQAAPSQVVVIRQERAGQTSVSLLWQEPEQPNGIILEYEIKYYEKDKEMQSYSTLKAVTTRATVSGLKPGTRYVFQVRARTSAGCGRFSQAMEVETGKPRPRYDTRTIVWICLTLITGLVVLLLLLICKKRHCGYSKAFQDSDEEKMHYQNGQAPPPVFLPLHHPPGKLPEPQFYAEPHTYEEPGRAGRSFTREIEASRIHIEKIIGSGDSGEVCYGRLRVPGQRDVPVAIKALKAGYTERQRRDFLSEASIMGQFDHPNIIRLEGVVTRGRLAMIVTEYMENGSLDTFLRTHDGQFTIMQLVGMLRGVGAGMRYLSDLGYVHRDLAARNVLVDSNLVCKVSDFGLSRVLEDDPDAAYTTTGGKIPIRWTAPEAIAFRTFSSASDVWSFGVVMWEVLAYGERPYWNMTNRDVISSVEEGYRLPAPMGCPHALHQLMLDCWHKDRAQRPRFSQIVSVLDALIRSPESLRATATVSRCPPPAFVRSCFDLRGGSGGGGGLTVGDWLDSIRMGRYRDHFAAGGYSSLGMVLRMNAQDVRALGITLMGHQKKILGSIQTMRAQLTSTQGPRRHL

Another assay concerns the target T4, FAK (Homo sapiens, UniProt Q05397).
T4 construct: gene PTK2

For another assay, the target named is T5, PRKD1 (Homo sapiens, UniProt Q15139).
T5 sequence (Q15139 1-912): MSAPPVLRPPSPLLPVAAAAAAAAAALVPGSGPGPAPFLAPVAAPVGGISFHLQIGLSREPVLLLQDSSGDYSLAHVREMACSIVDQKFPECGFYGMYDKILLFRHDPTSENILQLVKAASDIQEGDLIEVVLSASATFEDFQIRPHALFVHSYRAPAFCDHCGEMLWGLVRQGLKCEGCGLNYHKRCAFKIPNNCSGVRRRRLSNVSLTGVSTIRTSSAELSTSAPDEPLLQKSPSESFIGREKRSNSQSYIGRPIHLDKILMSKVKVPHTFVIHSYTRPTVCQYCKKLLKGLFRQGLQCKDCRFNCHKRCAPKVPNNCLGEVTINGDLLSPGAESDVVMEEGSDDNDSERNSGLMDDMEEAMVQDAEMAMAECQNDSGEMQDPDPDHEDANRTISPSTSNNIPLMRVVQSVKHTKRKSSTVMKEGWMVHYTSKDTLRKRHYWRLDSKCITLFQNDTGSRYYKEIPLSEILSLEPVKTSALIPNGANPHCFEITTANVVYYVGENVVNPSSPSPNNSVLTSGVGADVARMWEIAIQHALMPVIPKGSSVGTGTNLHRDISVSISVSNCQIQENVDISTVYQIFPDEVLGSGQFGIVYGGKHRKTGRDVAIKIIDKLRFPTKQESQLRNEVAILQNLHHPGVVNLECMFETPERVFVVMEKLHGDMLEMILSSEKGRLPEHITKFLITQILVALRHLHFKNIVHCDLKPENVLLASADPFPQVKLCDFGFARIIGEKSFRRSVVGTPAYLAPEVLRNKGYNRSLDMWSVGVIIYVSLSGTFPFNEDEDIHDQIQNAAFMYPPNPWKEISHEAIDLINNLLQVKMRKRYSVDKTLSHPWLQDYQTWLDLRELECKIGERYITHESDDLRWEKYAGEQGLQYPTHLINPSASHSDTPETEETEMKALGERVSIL

Setting [2] is: read-out: Niraparib (MK-4827) / %Ctrl @ 10000nM.
[3] abbreviates: read-out: Talazoparib (BMN 673) / %Ctrl @ 10000nM.
Setting [4] is: read-out: Rucaparib / %Ctrl @ 10000nM, binding competition, % of control.
Where [5] appears, read: read-out: Olaparib / %Ctrl @ 10000nM.

Read-outs that look alike come from different tables or passages of the source.

T4 sequence (Q05397 whole entry): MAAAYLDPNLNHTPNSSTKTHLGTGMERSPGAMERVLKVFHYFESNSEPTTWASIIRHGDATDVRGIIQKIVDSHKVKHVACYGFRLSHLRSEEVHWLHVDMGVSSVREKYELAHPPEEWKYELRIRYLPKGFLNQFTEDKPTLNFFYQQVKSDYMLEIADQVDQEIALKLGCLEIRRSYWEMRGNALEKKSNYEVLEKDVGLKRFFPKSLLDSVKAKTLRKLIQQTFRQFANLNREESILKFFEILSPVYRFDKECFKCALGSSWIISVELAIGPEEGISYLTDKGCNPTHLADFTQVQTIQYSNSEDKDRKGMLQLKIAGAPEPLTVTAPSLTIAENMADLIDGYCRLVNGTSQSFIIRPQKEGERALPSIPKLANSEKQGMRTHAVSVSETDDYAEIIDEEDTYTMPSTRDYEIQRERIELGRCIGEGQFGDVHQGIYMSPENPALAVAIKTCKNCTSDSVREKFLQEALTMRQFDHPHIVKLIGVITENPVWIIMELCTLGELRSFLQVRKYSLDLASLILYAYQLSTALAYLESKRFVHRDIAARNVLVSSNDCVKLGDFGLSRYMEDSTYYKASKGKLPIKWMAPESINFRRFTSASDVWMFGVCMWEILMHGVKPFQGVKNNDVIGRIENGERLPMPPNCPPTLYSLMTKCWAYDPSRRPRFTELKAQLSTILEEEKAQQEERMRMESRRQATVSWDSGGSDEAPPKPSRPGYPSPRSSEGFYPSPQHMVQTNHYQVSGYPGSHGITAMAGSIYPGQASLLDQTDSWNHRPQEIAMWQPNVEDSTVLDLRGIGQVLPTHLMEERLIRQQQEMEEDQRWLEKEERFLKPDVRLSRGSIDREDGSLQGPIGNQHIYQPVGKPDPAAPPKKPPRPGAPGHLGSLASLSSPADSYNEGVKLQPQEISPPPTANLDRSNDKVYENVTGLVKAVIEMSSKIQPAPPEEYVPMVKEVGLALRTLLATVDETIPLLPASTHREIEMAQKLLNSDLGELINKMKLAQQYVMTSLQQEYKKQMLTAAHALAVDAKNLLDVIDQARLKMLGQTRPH

For `NC(=O)c1cccc2cn(-c3ccc([C@@H]4CCCNC4)cc3)nc12` [Niraparib], the percent of control binding at 10 µM at SGK2 (setting [2]) was determined as 96%; at NEK6 (setting [2]), 100%; in assay [1] (setting [2]), 94%; at EPHA8 (setting [2]), 80%; at FAK (setting [2]), 100%; at PRKD1 (setting [2]), 86%.
`Cn1ncnc1[C@H]1c2n[nH]c(=O)c3cc(F)cc(c23)N[C@@H]1c1ccc(F)cc1` [Talazoparib]: the percent of control binding at 10 µM on SGK2 (setting [3]) is 89%; on NEK6 (setting [3]), 99%; in assay [1] (setting [3]), 88%; at EPHA8 (setting [3]), 96%; on FAK (setting [3]) it was 100%; at PRKD1 (setting [3]), 100%.
As for `CNCc1ccc(-c2[nH]c3cc(F)cc4c3c2CCNC4=O)cc1` [Rucaparib], the percent of control binding at 10 µM at SGK2 (setting [4]) came to 78%; on NEK6 (setting [4]), 89%; in assay [1] (setting [4]), 52%; on EPHA8 (setting [4]), 100%; at FAK (setting [4]), 100%; at PRKD1 (setting [4]), 67%.
On to `O=C(c1cc(Cc2n[nH]c(=O)c3ccccc23)ccc1F)N1CCN(C(=O)C2CC2)CC1` [Olaparib], for which the percent of control binding at 10 µM at SGK2 (setting [5]) stood at 99%; at NEK6 (setting [5]), 96%; in assay [1] (setting [5]) it was 94%; on EPHA8 (setting [5]), 98%; at FAK (setting [5]), 100%; on PRKD1 (setting [5]), 89%.

The values above are taken from publication PMC7026418, “The kinase polypharmacology landscape of clinical PARP inhibitors” (Scientific Reports, 2020).
